Columns and labels:
Format in all cases: in vivo
[1] = system: giant foxtail (Setaria faberi); assay: Preemergence herbicidal activity; details: scored after 3 weeks, 0 no injury, 100 complete kill or no germination
Protocol: (§1) The soil matrix was contained in plastic pots with a surface area of 161 square centimeters. When required to ensure good germination and healthy plants, a fungicide treatment and/or other chemical or physical treatment was applied. A weighed amount, determined by the highest rate to be tested, of each test compound was placed in a 20 mL glass vial and was dissolved in 8 mL of a 97:3 v/v (volume/volume) mixture of acetone and dimethyl sulfoxide to obtain concentrated stock solutions. […] The stock solutions obtained were diluted with a 99.9:0.1 mixture of water and Tween® 155 surfactant (ethoxylated sorbitan fatty acid ester) to obtain application solutions of known concentration. The solutions containing the highest concentration to be tested were prepared by diluting 4 mL aliquots of the stock solution with 8.5 mL of the mixture and lower concentrations were prepared by dilution of appropriate smaller portions of the stock solution. A 2.5 mL aliquot of each solution of known concentration was sprayed evenly onto the soil of each seeded pot using a Cornwall 5.0 mL glass syringe fitted with a TeeJet TN-3 hollow cone nozzle to obtain thorough coverage of the soil in each pot. Control pots were sprayed in the same manner with the aqueous mixture. A highest application rate of 4.48 kg/ha is achieved when 50 mg of test compound is employed. The treated pots and control pots were placed in a greenhouse with an approximately 15 hr photoperiod which was maintained at about 23-29° C. during the day and 22-28° C. during the night. Nutrients and water were added on a regular basis and supplemental lighting was provided with overhead metal halide 1000 Watt lamps as necessary. The water was added by top-irrigation. After 3 weeks the condition of the test plants that germinated and grew as compared with that of the untreated plants that germinated and grew was determined visually and scored on a scale of 0 to 100 percent where 0 corresponds to no injury and 100 corresponds to complete kill or no germination.

[2] = system: blackgrass (Alopecurus myosuroides); assay: Preemergence herbicidal activity; details: scored after 3 weeks, 0 no injury, 100 complete kill or no germination
Protocol: as §1

wild oats (Avena fatua) [3] = assay: Preemergence herbicidal activity; details: scored after 3 weeks, 0 no injury, 100 complete kill or no germination
Protocol: as §1

[4] = system: wild poinsettia (Euphorbia heterophylla); assay: Preemergence herbicidal activity; details: scored after 3 weeks, 0 no injury, 100 complete kill or no germination
Protocol: as §1

[5] = system: cocklebur (Xanthium strumarium); assay: Preemergence herbicidal activity; details: scored after 3 weeks, 0 no injury, 100 complete kill or no germination
Protocol: as §1

[6] = system: Rox orange sorghum (Sorghum bicolor); assay: Preemergence herbicidal activity; details: scored after 3 weeks, 0 no injury, 100 complete kill or no germination
Protocol: as §1

[7] = system: barnyardgrass (Echinochloa crus-galli); assay: Preemergence herbicidal activity; details: scored after 3 weeks, 0 no injury, 100 complete kill or no germination
Protocol: as §1

[8] = system: pigweed (Amaranthus retroflexus); assay: Preemergence herbicidal activity; details: scored after 3 weeks, 0 no injury, 100 complete kill or no germination
Protocol: as §1

[9] = system: crabgrass (Digitaria sanguinalis); assay: Preemergence herbicidal activity; details: scored after 3 weeks, 0 no injury, 100 complete kill or no germination
Protocol: as §1

[10] = system: morningglory (Ipomoea hederacea); assay: Preemergence herbicidal activity; details: scored after 3 weeks, 0 no injury, 100 complete kill or no germination
Protocol: as §1

[11] = system: velvetleaf (Abutilion theophrasti); assay: Preemergence herbicidal activity; details: scored after 3 weeks, 0 no injury, 100 complete kill or no germination
Protocol: as §1

[12] = system: giant foxtail (Setaria faberi); assay: Postemergence herbicidal activity; details: scored after 2 weeks, 0 no injury, 100 complete kill
Protocol: (§2) Seeds of the desired test plant species were planted in Grace-Sierra MetroMix® 306 planting mixture, which typically has a pH of 6.0 to 6.8 and an organic matter content of about 30 percent, in plastic pots with a surface area of 64 square centimeters. When required to ensure good germination and healthy plants, a fungicide treatment and/or other chemical or physical treatment was applied. The plants were grown for 7-21 days in a greenhouse with an approximately 15 hr photoperiod which was maintained at about 23-29° C. during the day and 22-28° C. during the night. Nutrients and water were added on a regular basis and supplemental lighting was provided with overhead metal halide 1000 Watt lamps as necessary. The plants were employed for testing when they reached the first or second true leaf stage. A weighed amount of each test compound, determined by the highest rate to be tested, was placed in a 20 mL glass vial and was dissolved in 4 mL of a 97:3 v/v (volume/volume) mixture of acetone and dimethyl sulfoxide to obtain concentrated stock solutions. […] The concentrated stock solutions obtained were diluted with an aqueous mixture containing acetone, water, iso-propyl alcohol, dimethyl sulfoxide, Atplus 411F crop oil concentrate, and Triton X-155 surfactant (methylenebisdiamyl phenoxy polyethoxy ethanol) in a 48.5:39:10:1.5:1.0:0.02 v/v ratio to obtain spray solutions of known concentration. The solutions containing the highest concentration to be tested were prepared by diluting 2 mL aliquots of the stock solution with 13 mL of the mixture and lower concentrations were prepared by dilution of appropriate smaller portions of the stock solution. Approximately 1.5 mL aliquots of each solution of known concentration were sprayed evenly onto each of the test plant pots using a Devilbiss atomizer driven by compressed air pressure of 2 to 4 psi (140 to 280 kiloPascals) to obtain thorough coverage of each plant. Control plants were sprayed in the same manner with the aqueous mixture. In this test an application rate of 1 ppm results in the application of approximately 1 g/ha. The treated plants and control plants were placed in a greenhouse as described above and watered by sub-irrigation to prevent wash-off of the test compounds. After 2 weeks the condition of the test plants as compared with that of the untreated plants was determined visually and scored on a scale of 0 to 100 percent where 0 corresponds to no injury and 100 corresponds to complete kill.

[13] = system: lambsquarters (Chenopodium album); assay: Postemergence herbicidal activity; details: scored after 2 weeks, 0 no injury, 100 complete kill
Protocol: as §2

[14] = system: blackgrass (Alopecurus myosuroides); assay: Postemergence herbicidal activity; details: scored after 2 weeks, 0 no injury, 100 complete kill
Protocol: as §2

wild oats (Avena fatua) [15] = assay: Postemergence herbicidal activity; details: scored after 2 weeks, 0 no injury, 100 complete kill
Protocol: as §2

[16] = system: chickweed (Stellaria media); assay: Postemergence herbicidal activity; details: scored after 2 weeks, 0 no injury, 100 complete kill
Protocol: as §2

viola (Viola tricolor) = assay: Postemergence herbicidal activity; details: scored after 2 weeks, 0 no injury, 100 complete kill
Protocol: as §2

[17] = system: cocklebur (Xanthium strumarium); assay: Postemergence herbicidal activity; details: scored after 2 weeks, 0 no injury, 100 complete kill
Protocol: as §2

[18] = system: wild buckwheat (Polygonum convolvulus); assay: Postemergence herbicidal activity; details: scored after 2 weeks, 0 no injury, 100 complete kill
Protocol: as §2

[19] = system: Rox orange sorghum (Sorghum bicolor); assay: Postemergence herbicidal activity; details: scored after 2 weeks, 0 no injury, 100 complete kill
Protocol: as §2

[20] = system: pigweed (Amaranthus retroflexus); assay: Postemergence herbicidal activity; details: scored after 2 weeks, 0 no injury, 100 complete kill
Protocol: as §2

[21] = system: morningglory (Ipomoea hederacea); assay: Postemergence herbicidal activity; details: scored after 2 weeks, 0 no injury, 100 complete kill
Protocol: as §2

[22] = system: velvetleaf (Abutilion theophrasti); assay: Postemergence herbicidal activity; details: scored after 2 weeks, 0 no injury, 100 complete kill
Protocol: as §2

[23] = system: lambsquarters (Chenopodium album); assay: Preemergence herbicidal activity; details: 17.5 g/Ha; scored after 3 weeks; 0 no injury, 100 complete kill or no germination
Protocol: as §1

COc1cc(OC)n2nc(NS(=O)(=O)c3cc(Cl)ccc3OC)nc2n1 [Compound 5]
Preemergence herbicidal activity SETFA ([1]; 70 g/Ha): 98%
Preemergence herbicidal activity ALOMY ([2]; 70 g/Ha): 100%
Preemergence herbicidal activity AVEFA (wild oats (Avena fatua) [3]; 70 g/Ha): 99%
Preemergence herbicidal activity EPHHL ([4]; 70 g/Ha): 90%
Preemergence herbicidal activity XANST ([5]; 70 g/Ha): 85%
Preemergence herbicidal activity SORBI ([6]; 70 g/Ha): 95%
Preemergence herbicidal activity ECHCG ([7]; 70 g/Ha): 98%
Preemergence herbicidal activity AMARE ([8]; 70 g/Ha): 99%
Preemergence herbicidal activity DIGSA ([9]; 70 g/Ha): 99%
Preemergence herbicidal activity IPOHE ([10]; 70 g/Ha): 75%
Preemergence herbicidal activity ABUTH ([11]; 70 g/Ha): 95%
Postemergence herbicidal activity SETFA ([12]; 62.5 ppm): 98%
Postemergence herbicidal activity CHEAL ([13]; 62.5 ppm): 95%
Postemergence herbicidal activity ALOMY ([14]; 62.5 ppm): 95%
Postemergence herbicidal activity AVEFA (wild oats (Avena fatua) [15]; 62.5 ppm): 99%
Postemergence herbicidal activity STEME ([16]; 62.5 ppm): 98%
Postemergence herbicidal activity VIOTR (viola (Viola tricolor); 62.5 ppm): 90%
Postemergence herbicidal activity XANST ([17]; 62.5 ppm): 100%
Postemergence herbicidal activity POLCO ([18]; 62.5 ppm): 98%
Postemergence herbicidal activity SORBI ([19]; 62.5 ppm): 100%
Postemergence herbicidal activity AMARE ([20]; 62.5 ppm): 100%
Postemergence herbicidal activity IPOHE ([21]; 62.5 ppm): 80%
Postemergence herbicidal activity ABUTH ([22]; 62.5 ppm): 98%

COc1cc(OC)n2nc(NS(=O)(=O)c3c(OCC(F)F)cccc3C(F)(F)F)nc2n1 [Compound 8]
Preemergence herbicidal activity SETFA ([1]; 17.5 g/Ha): 100%
Preemergence herbicidal activity CHEAL [23]: 100%
Preemergence herbicidal activity ALOMY ([2]; 17.5 g/Ha): 95%
Preemergence herbicidal activity AVEFA (wild oats (Avena fatua) [3]; 17.5 g/Ha): 30%
Preemergence herbicidal activity EPHHL ([4]; 17.5 g/Ha): 90%
Preemergence herbicidal activity XANST ([5]; 17.5 g/Ha): 80%
Preemergence herbicidal activity SORBI ([6]; 17.5 g/Ha): 95%
Preemergence herbicidal activity ECHCG ([7]; 17.5 g/Ha): 100%
Preemergence herbicidal activity AMARE ([8]; 17.5 g/Ha): 100%
Preemergence herbicidal activity DIGSA ([9]; 17.5 g/Ha): 85%
Preemergence herbicidal activity IPOHE ([10]; 17.5 g/Ha): 90%
Preemergence herbicidal activity ABUTH ([11]; 17.5 g/Ha): 85%
Postemergence herbicidal activity SETFA ([12]; 31.3 ppm): 100%
Postemergence herbicidal activity ALOMY ([14]; 31.3 ppm): 80%
Postemergence herbicidal activity AVEFA (wild oats (Avena fatua) [15]; 31.3 ppm): 60%
Postemergence herbicidal activity STEME ([16]; 31.3 ppm): 98%
Postemergence herbicidal activity VIOTR (viola (Viola tricolor); 31.3 ppm): 85%
Postemergence herbicidal activity XANST ([17]; 31.3 ppm): 100%
Postemergence herbicidal activity POLCO ([18]; 31.3 ppm): 98%
Postemergence herbicidal activity SORBI ([19]; 31.3 ppm): 80%
Postemergence herbicidal activity AMARE ([20]; 31.3 ppm): 100%
Postemergence herbicidal activity IPOHE ([21]; 31.3 ppm): 95%
Postemergence herbicidal activity ABUTH ([22]; 31.3 ppm): 100%

COc1cc(OC)n2nc(NS(=O)(=O)c3c(OC)cccc3C(F)(F)F)nc2n1 [Compound 4]
Preemergence herbicidal activity SETFA ([1]; 17.5 g/Ha): 99%
Preemergence herbicidal activity ALOMY ([2]; 17.5 g/Ha): 100%
Preemergence herbicidal activity AVEFA (wild oats (Avena fatua) [3]; 17.5 g/Ha): 100%
Preemergence herbicidal activity EPHHL ([4]; 17.5 g/Ha): 98%
Preemergence herbicidal activity XANST ([5]; 17.5 g/Ha): 85%
Preemergence herbicidal activity SORBI ([6]; 17.5 g/Ha): 100%
Preemergence herbicidal activity ECHCG ([7]; 17.5 g/Ha): 100%
Preemergence herbicidal activity AMARE ([8]; 17.5 g/Ha): 99%
Preemergence herbicidal activity DIGSA ([9]; 17.5 g/Ha): 100%
Preemergence herbicidal activity IPOHE ([10]; 17.5 g/Ha): 98%
Preemergence herbicidal activity ABUTH ([11]; 17.5 g/Ha): 98%
Postemergence herbicidal activity SETFA ([12]; 3.9 ppm): 100%
Postemergence herbicidal activity CHEAL ([13]; 3.9 ppm): 95%
Postemergence herbicidal activity ALOMY ([14]; 3.9 ppm): 95%
Postemergence herbicidal activity AVEFA (wild oats (Avena fatua) [15]; 3.9 ppm): 98%
Postemergence herbicidal activity STEME ([16]; 3.9 ppm): 99%
Postemergence herbicidal activity VIOTR (viola (Viola tricolor); 3.9 ppm): 90%
Postemergence herbicidal activity XANST ([17]; 3.9 ppm): 70%
Postemergence herbicidal activity POLCO ([18]; 3.9 ppm): 95%
Postemergence herbicidal activity SORBI ([19]; 3.9 ppm): 95%
Postemergence herbicidal activity AMARE ([20]; 3.9 ppm): 100%
Postemergence herbicidal activity IPOHE ([21]; 3.9 ppm): 90%
Postemergence herbicidal activity ABUTH ([22]; 3.9 ppm): 95%

Reference: patent US6559101B2, “N- (5, 7-dimethoxy [1, 2, 4] triazolo [1, 5-a] pyrimidin-2-yl) arylsulfonamide compounds and their use as herbicides” (Dow AgroSciences LLC, priority 2000, dated 2003)
